Laboratory results reported in PubChem BioAssay AID180 (DTP/NCI, 2004).
Where “and” joins values, the source holds several entries; their conditions need not be identical. Identical values can stand only once.

System: BDF1 mice, Adenocarcinoma 755 s.c., tumor weight T/C
Test: NCI In Vivo Anticancer Drug Screen. Data for tumor model Adenocarcinoma 755 (subcutaneous) in B6D2F1 (BDF1) mice
Conditions: endpoint: mean tumor weight, schedule: Q01DX011 (ip), higher = larger tumour
Procedure, shortened: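 Transplantable tumor implanted; mice dosed with compound or vehicle; survival or tumor size recorded; ratio of treated to vehicle control reported.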

[1] = dose: 0.5 mg/kg/injection, vehicle: saline

Nc1nc(=S)c2[nH]cnc2[nH]1
T/C (dose: 0.01 mg/kg/injection, vehicle: saline): 113 % of control | T/C (dose: 0.03 mg/kg/injection, vehicle: saline): 81 % of control | T/C (dose: 0.06 mg/kg/injection, vehicle: saline): 88 % of control | T/C (dose: 0.07 mg/kg/injection, vehicle: alkali diluted with saline): 74 % of control | T/C (dose: 0.07 mg/kg/injection, vehicle: methylcellulose (MC)): 28 % of control | T/C (dose: 0.12 mg/kg/injection, vehicle: carboxymethylcellulose (CMC)): 112 % of control | T/C (dose: 0.12 mg/kg/injection, vehicle: saline): 66 % of control | T/C (dose: 0.13 mg/kg/injection, vehicle: alkali diluted with saline): 95 % of control | T/C (dose: 0.13 mg/kg/injection, vehicle: other): 91 % of control | T/C (dose: 0.13 mg/kg/injection, vehicle: saline): 7 % of control | T/C (dose: 0.18 mg/kg/injection, vehicle: carboxymethylcellulose (CMC)): 32 % of control | T/C (dose: 0.2 mg/kg/injection, vehicle: methylcellulose (MC)): 39 % of control | T/C (dose: 0.24 mg/kg/injection, vehicle: carboxymethylcellulose (CMC)): 77 % of control | T/C (dose: 0.25 mg/kg/injection, vehicle: alkali diluted with saline): 53 % of control | T/C (dose: 0.25 mg/kg/injection, vehicle: distilled water + alcohol): 7 % of control | T/C (dose: 0.25 mg/kg/injection, vehicle: methylcellulose (MC)): 4 % of control and 11 % of control and 15 % of control | T/C (dose: 0.25 mg/kg/injection, vehicle: other): 32 % of control | T/C (dose: 0.35 mg/kg/injection, vehicle: carboxymethylcellulose (CMC)): 9 % of control | T/C (dose: 0.4 mg/kg/injection, vehicle: methylcellulose (MC)): 12 % of control | T/C (dose: 0.47 mg/kg/injection, vehicle: carboxymethylcellulose (CMC)): 34 % of control | T/C (dose: 0.5 mg/kg/injection, vehicle: alkali diluted with saline): 4 % of control | T/C (dose: 0.5 mg/kg/injection, vehicle: distilled water + alcohol): 7 % of control | T/C (dose: 0.5 mg/kg/injection, vehicle: other): 8 % of control | T/C [1]: 8 % of control | T/C (dose: 0.7 mg/kg/injection, vehicle: carboxymethylcellulose (CMC)): 7 % of control | T/C (dose: 0.94 mg/kg/injection, vehicle: carboxymethylcellulose (CMC)): 30 % of control | T/C (dose: 1.0 mg/kg/injection, vehicle: alkali diluted with saline): 1 % of control | T/C (dose: 1.0 mg/kg/injection, vehicle: carboxymethylcellulose (CMC)): 1 % of control and 2 % of control | T/C (dose: 1.0 mg/kg/injection, vehicle: distilled water + alcohol): 2 % of control | T/C (dose: 1.0 mg/kg/injection, vehicle: other): 3 % of control | T/C (dose: 1.0 mg/kg/injection, vehicle: saline): 2 % of control and 8 % of control | T/C (dose: 1.4 mg/kg/injection, vehicle: carboxymethylcellulose (CMC)): 5 % of control | T/C (dose: 1.5 mg/kg/injection, vehicle: methylcellulose (MC)): 4 % of control | T/C (dose: 2.0 mg/kg/injection, vehicle: alkali diluted with saline): 1 % of control | T/C (dose: 2.0 mg/kg/injection, vehicle: carboxymethylcellulose (CMC)): 1 % of control | T/C (dose: 2.0 mg/kg/injection, vehicle: other): 2 % of control | T/C (dose: 2.0 mg/kg/injection, vehicle: saline): 3 % of control and 7 % of control | T/C (dose: 3.0 mg/kg/injection, vehicle: methylcellulose (MC)): 3 % of control | T/C (dose: 4.0 mg/kg/injection, vehicle: carboxymethylcellulose (CMC)): 1 % of control | T/C (dose: 4.0 mg/kg/injection, vehicle: methylcellulose (MC)): 3 % of control | T/C (dose: 4.0 mg/kg/injection, vehicle: other): 1 % of control | T/C (dose: 46.0 micrograms/kg/injection, vehicle: carboxymethylcellulose (CMC)): 72 % of control | T/C (dose: 49.0 micrograms/kg/injection, vehicle: carboxymethylcellulose (CMC)): 118 % of control | T/C (dose: 58.0 micrograms/kg/injection, vehicle: carboxymethylcellulose (CMC)): 91 % of control | T/C (dose: 62.0 micrograms/kg/injection, vehicle: carboxymethylcellulose (CMC)): 77 % of control | T/C (dose: 77.0 micrograms/kg/injection, vehicle: carboxymethylcellulose (CMC)): 54 % of control | T/C (dose: 82.0 micrograms/kg/injection, vehicle: carboxymethylcellulose (CMC)): 69 % of control | T/C (dose: 90.0 micrograms/kg/injection, vehicle: methylcellulose (MC)): 32 % of control | T/C (dose: 93.0 micrograms/kg/injection, vehicle: carboxymethylcellulose (CMC)): 28 % of control | T/C (dose: 116.0 micrograms/kg/injection, vehicle: carboxymethylcellulose (CMC)): 12 % of control and 36 % of control | T/C (dose: 140.0 micrograms/kg/injection, vehicle: carboxymethylcellulose (CMC)): 11 % of control | T/C (dose: 155.0 micrograms/kg/injection, vehicle: carboxymethylcellulose (CMC)): 6 % of control | T/C (dose: 175.0 micrograms/kg/injection, vehicle: carboxymethylcellulose (CMC)): 4 % of control | T/C (dose: 187.0 micrograms/kg/injection, vehicle: methylcellulose (MC)): 11 % of control | T/C (dose: 232.0 micrograms/kg/injection, vehicle: carboxymethylcellulose (CMC)): 13 % of control | T/C (dose: 233.0 micrograms/kg/injection, vehicle: carboxymethylcellulose (CMC)): 2 % of control and 5 % of control | T/C (dose: 350.0 micrograms/kg/injection, vehicle: carboxymethylcellulose (CMC)): 3 % of control and 4 % of control | T/C (dose: 375.0 micrograms/kg/injection, vehicle: methylcellulose (MC)): 9 % of control | T/C (dose: 490.0 micrograms/kg/injection, vehicle: carboxymethylcellulose (CMC)): 5 % of control | T/C (dose: 750.0 micrograms/kg/injection, vehicle: methylcellulose (MC)): 4 % of control | T/C (dose: 980.0 micrograms/kg/injection, vehicle: carboxymethylcellulose (CMC)): 4 % of control | T/C (dose: 1500.0 micrograms/kg/injection, vehicle: methylcellulose (MC)): 3 % of control | T/C (dose: 3000.0 micrograms/kg/injection, vehicle: methylcellulose (MC)): 4 % of control

CC(CN1CCN(C)CC1)CN1c2ccccc2Sc2ccc(C(F)(F)F)cc21 (stereo not given)
T/C (dose: 17.5 mg/kg/injection, vehicle: methylcellulose (MC)): 64 % of control | T/C (dose: 35.0 mg/kg/injection, vehicle: methylcellulose (MC)): 52 % of control | T/C (dose: 70.0 mg/kg/injection, vehicle: methylcellulose (MC)): 58 % of control

C[C@]12CC[C@H](O)C[C@H]1CC[C@@H]1[C@@H]2CC[C@]2(C)[C@@H](C3=CC(=O)OC3)CC[C@]12O
T/C (dose: 5.0 mg/kg/injection, vehicle: carboxymethylcellulose (CMC)): 72 % of control | T/C (dose: 10.0 mg/kg/injection, vehicle: carboxymethylcellulose (CMC)): 67 % of control | T/C (dose: 25.0 mg/kg/injection, vehicle: carboxymethylcellulose (CMC)): 49 % of control

O/N=C1\CCCC\C1=N/O
T/C (dose: 200.0 mg/kg/injection, vehicle: other): 55 % of control | T/C (dose: 300.0 mg/kg/injection, vehicle: other): 4 % of control

CCOC(=O)C(N)Cc1ccc(N(CCCl)CCCl)cc1 (stereo not given)
T/C (dose: 0.5 mg/kg/injection, vehicle: carboxymethylcellulose (CMC)): 92 % of control | T/C [1]: 82 % of control | T/C (dose: 1.1 mg/kg/injection, vehicle: carboxymethylcellulose (CMC)): 77 % of control | T/C (dose: 1.1 mg/kg/injection, vehicle: saline): 40 % of control | T/C (dose: 2.2 mg/kg/injection, vehicle: carboxymethylcellulose (CMC)): 91 % of control | T/C (dose: 2.2 mg/kg/injection, vehicle: saline): 9 % of control | T/C (dose: 4.5 mg/kg/injection, vehicle: carboxymethylcellulose (CMC)): 78 % of control | T/C (dose: 4.5 mg/kg/injection, vehicle: saline): 1 % of control | T/C (dose: 9.0 mg/kg/injection, vehicle: carboxymethylcellulose (CMC)): 69 % of control
